Experimental data: patent US20250127907A1, “PARP INHIBITORS” (Stablix, Inc., priority 2023, published 2025)
Where two headings read alike, the source gives them in different places.

What was measured:
[1] = test system: MDA-MB-436 cells; assay: Cell proliferation assay (MDA-MB-436); assay type: cell-based; conditions: Homo sapiens, 168 h, 7 days
Protocol: (§1) Cells are counted, diluted to desired density and 40 μL of cell suspension is added into each 384-well tissue-culture treated plates. Plates are incubated in Tissue Culture incubator at 37° C./5% C02 overnight.
(§2) Next day, 40 nl test compounds that are prepared from source plates are transferred to the seeded cells from overnight. Plates are incubated at 37° C./5% C02 for a total of 7 days. After 7-day incubation, plates are equilibrated to room temperature and 30 ul of Cell Counting-Lite is added to each well for a 30 min incubation followed by reading on EnVision.
(§3) The letter codes for the cell proliferation assay in A2780, HCC1806, and MDA-MB-436 cells include: A (<10 nM), B (>10-100 nM), C (>100-1000 nM), D (>1000-10000 nM), E (>10000 nM), and “-” is not tested.

[2] = target: T1, PARP1 (Homo sapiens, UniProt P09874); assay: PARP trapping assay in U2OS cells; assay type: cell-based; set-up: endogenous in cells; host or cells: U2OS; conditions: U2OS cells, MMS, 4 hrs; read-out: PARP Trapping (U2OS)
Protocol: U2OS cells are seeded at 15,000 cells/well in 90 ul medium and incubated in the TC incubator for overnight.
Next day, test compounds are prepared in a source plate along with addition of DNA damage reagent MMS simultaneously and 10 ul of the diluted mixture is added to the cell plate and incubated for 4 hrs under T/C conditions.
After 4 hrs, following aspiration and washing, add 100 ul of cold cytoskeleton removal buffer (0.5% Triton X-100) and incubated for 10 min. At the end of incubation, slowly the buffer is removed, and cells are fixed with ice cold MeOH for 15 min at −20C. Followed by wash steps, cells are blocked with 1×PBS/3% BSA/0.05% Tween for 1 h at room temperature.
Cells are stained with anti PARP1 antibody (abeam ab227244, 1:1000), in 1×PBS/1% BSA overnight at 4C.
Wash and add DAPI, scan cells in Celigo.
Data Analysis: DAPI staining is used to segment nuclei and AF488 fluorescence intensity per nucleus is measured.
(§4) The letter codes for the PARP1-enzyme assay include: A (<1 nM), B (>1-10 nM), C (>10-100 nM), D (>100-1000 nM), E (>1000 nM), and “-” is not tested. The letter codes for the PARP trapping assay, and parylation assay include: A (<10 nM), B (>10-100 nM), C (>100-1000 nM), […], E (>10000 nM), and “-” is not tested.
Target sequence in this assay (P09874 whole entry): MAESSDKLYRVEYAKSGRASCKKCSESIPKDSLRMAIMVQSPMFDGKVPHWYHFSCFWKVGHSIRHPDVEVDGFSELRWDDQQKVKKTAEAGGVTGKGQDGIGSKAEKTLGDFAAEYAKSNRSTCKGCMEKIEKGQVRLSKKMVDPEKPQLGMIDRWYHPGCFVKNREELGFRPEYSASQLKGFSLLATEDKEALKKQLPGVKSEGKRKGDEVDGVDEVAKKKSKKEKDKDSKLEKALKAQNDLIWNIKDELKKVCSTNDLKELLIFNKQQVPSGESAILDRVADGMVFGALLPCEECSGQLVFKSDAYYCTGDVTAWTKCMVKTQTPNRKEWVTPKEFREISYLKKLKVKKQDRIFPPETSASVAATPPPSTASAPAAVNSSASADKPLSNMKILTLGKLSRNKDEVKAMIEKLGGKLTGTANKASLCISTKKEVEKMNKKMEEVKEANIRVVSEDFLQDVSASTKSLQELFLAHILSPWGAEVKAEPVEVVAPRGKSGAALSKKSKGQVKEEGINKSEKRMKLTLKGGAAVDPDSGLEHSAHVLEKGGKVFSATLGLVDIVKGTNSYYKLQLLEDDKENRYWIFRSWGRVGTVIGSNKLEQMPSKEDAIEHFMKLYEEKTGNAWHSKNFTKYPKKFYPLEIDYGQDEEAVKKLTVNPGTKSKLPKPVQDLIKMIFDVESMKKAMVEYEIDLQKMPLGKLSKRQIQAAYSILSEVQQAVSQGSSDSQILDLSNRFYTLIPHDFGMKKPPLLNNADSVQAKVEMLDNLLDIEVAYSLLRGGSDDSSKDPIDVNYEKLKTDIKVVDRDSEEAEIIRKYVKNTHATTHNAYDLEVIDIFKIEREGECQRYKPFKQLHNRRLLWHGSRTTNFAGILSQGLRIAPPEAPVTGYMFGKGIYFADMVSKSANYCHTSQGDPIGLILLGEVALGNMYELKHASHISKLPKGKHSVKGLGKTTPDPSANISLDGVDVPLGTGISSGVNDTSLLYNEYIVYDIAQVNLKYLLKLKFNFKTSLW

[3] = test system: A2780 cells; assay: Cell proliferation assay (A2780); assay type: cell-based; conditions: Homo sapiens, 168 h, 7 days
Protocol: as §1, §2, §3

[4] = test system: Poly/Mono-ADP Ribose in U2OS cells; assay: PAR in cell western assay (parylation) in U2OS cells; assay type: cell-based; conditions: Homo sapiens, read-out: Parylation (U2OS)
Protocol: U2OS cells are seeded at 2667 cells per well in 24 ul medium into poly-D lysine-coated 384 well plate and incubated in the TC incubator for O/N
The next day, test comps are diluted in a source plate and 6 μL of the diluted comp is added to the cell plate; mixed well and incubated for 6 hrs. DNA damage is induced with 2 mM H2O2 for 10 min. After discarding the medium, cells are fixed in ice cold Methanol at for 20 min at −20C. After a wash step at room temperature, cells are permeabilized with 0.05% NP-40 in PBS for 10 min, followed by wash steps. Cells are blocked with 1% BSA, at room temperature for 1 hr. Cells are stained with anti mono/polyADP ribose antibody (E6F6A, Cell signaling, 1:5000) in 1×PBS/1% BSA/0.05% Tween o/n at 4C.
Next Day, cells are washed and incubated with anti-Rabbit 800CV (Licor antibody, 1:500) and CellTag 700 (Licor, 1:800) in 1×PBS/1% BSA/0.05% Tween for 1 h. After washing, plates are scanned using LICOR and are quantified.
Parylation inhibition is reported as % control inhibition.
as §4

[5] = target: T1, PARP1; assay: PARP1-enzyme assay (NAD/NADH-Glo biochemical assay); conditions: recombinant PARP1, NAD+ consumption
Protocol: The PARP enzyme catalyzes the transfer of ADP-Ribose from NAD+ onto PAR chains/histone substrates. The catalytic cycle is monitored indirectly with the NAD/NADH-Glo Assay kit from Promega. […] NAD+ consumed is determined by comparison to the no enzyme control.
• Recombinant PARP1 • NAD+/NAHD-Glow assay Kit • Activated DNA, 10 μg/mL • NAD+(Nicotinamide Adenine Dinucleotide), 500 nM • Protein substrate for PARP1: Core Histone from chicken, 10 μg/mL
as §4
Target sequence in this assay (P09874 whole entry, species assumed): as the sequence (P09874 whole entry) above

[6] = test system: HCC1806 cells; assay: Cell proliferation assay (HCC1806); assay type: cell-based; conditions: Homo sapiens, 168 h, 7 days
Protocol: as §1, §2, §3

Row | SMILES | IC50 [1] [nM] | IC50 [2] [nM] | IC50 [3] [nM] | IC50 ([4]; U2OS cells, 6 hrs, 2 mM H2O2) [nM] | IC50 [5] [nM] | IC50 ([4]; U2OS, 6 h) [nM] | IC50 [6] [nM]
1 | CCOc1cc(OC)ccc1COCC(=O)N1CCCC(c2cccc(C(=O)N[C@@H](C(=O)N3CCN(CC4CCN(CC(=O)N5CCN(C(=O)c6cc(Cc7n[nH]c(=O)c8ccccc78)ccc6F)CC5)CC4)CC3)C3CCCCC3)c2)C1 (stereo partly drawn) [Compound I-354] | 10 to 100 | 10 to 100 | 10 to 100 | 100 to 1000 | < 1 |  | 
2 | CCc1cccc(-c2cnc(C(=O)N3CCC(CN4CCN(CC(=O)N5CCN(C(=O)c6cc(Cc7n[nH]c(=O)c8ccccc78)ccc6F)CC5)CC4)CC3)c(NC(=O)CNCc3cccc(C)c3)c2)c1 [Compound I-61] | 10 to 100 | 10 to 100 | 100 to 1000 | 100 to 1000 | < 1 |  | 
3 | O=C(N[C@@H](C(=O)N1CCN(CC(=O)N2CCN(C(=O)c3cc(Cc4n[nH]c(=O)c5ccccc45)ccc3F)CC2)CC1)C1CCCCC1)c1cccc(C2CCCN(C(=O)CNCc3ccc(F)cc3F)C2)c1 (stereo partly drawn) [Compound I-963] | 100 to 1000 |  | 100 to 1000 |  | < 1 | 100 to 1000 | 
4 | CC1(C(=O)N2CCC(c3cccc(C(=O)N[C@@H](C(=O)N4CCC(OC5CCN(CC(=O)N6CCN(C(=O)c7cc(Cc8n[nH]c(=O)c9ccccc89)ccc7F)CC6)CC5)CC4)C4CCCCC4)c3F)CC2)CC1 [Compound I-883] | < 10 | 10 to 100 | 10 to 100 | 10 to 100 |  |  | 10 to 100
5 | CC1(C(=O)N2CC(c3cccc(C(=O)N[C@@H](C(=O)N4CCC(OC5CCN(CC(=O)N6CCN(C(=O)c7cc(Cc8n[nH]c(=O)c9ccccc89)ccc7F)CC6)CC5)CC4)C4CCCCC4)c3F)CCC2(C)C)CC1 (stereo partly drawn) [Compound I-884] | < 10 | 10 to 100 | 10 to 100 | 100 to 1000 |  |  | 10 to 100
6 | CC(C)(C)OC(=O)N1CCCC(c2cccc(Oc3cnnc(N4CCC(OC5CCN(CC(=O)N6CCN(C(=O)c7cc(Cc8n[nH]c(=O)c9ccccc89)ccc7F)CC6)CC5)CC4)c3)c2)C1 (stereo not drawn) [Compound I-870] | < 10 | 10 to 100 | 10 to 100 | 10 to 100 |  |  | 10 to 100
7 | CCc1cccc(-c2cnc(C(=O)NCCOCCNCC(=O)N3CCN(C(=O)c4cc(Cc5n[nH]c(=O)c6ccccc56)ccc4F)CC3)c(C)c2)c1 [Compound I-489] | < 10 | 100 to 1000 | 10 to 100 | 10 to 100 |  |  | 100 to 1000
8 | O=C(N[C@@H](C(=O)N1CCC(OC2CCN(CC(=O)N3CCN(C(=O)c4cc(Cc5n[nH]c(=O)c6ccccc56)ccc4F)CC3)CC2)CC1)C1CCCCC1)c1cccc(C2CCCN(C(=O)C34CC(F)(C3)C4)C2)c1F (stereo partly drawn) [Compound I-750] | < 10 | 10 to 100 | 10 to 100 | 10 to 100 |  |  | 10 to 100
9 | CC1(OC(=O)N[C@@H](C(=O)N2CCC(OC3CCN(CC(=O)N4CCN(C(=O)c5cc(Cc6n[nH]c(=O)c7ccccc67)ccc5F)CC4)CC3)CC2)C2CCCCC2)CCC1 [Compound I-749] | < 10 | 10 to 100 | 10 to 100 | 10 to 100 |  |  | 10 to 100
10 | CC(C)(C)OC(=O)N[C@@H](C(=O)N1C[C@H]2CC[C@@H](C1)[C@H]2OC1CCN(CC(=O)N2CCN(C(=O)c3cc(Cc4n[nH]c(=O)c5ccccc45)ccc3F)CC2)CC1)C1CCCCC1 [Compound I-990] | < 10 | 10 to 100 | 10 to 100 | 10 to 100 |  |  | 10 to 100
11 | CC(C)(C)OC(=O)Nc1cc(-c2cccc(C3COC3)c2)cnc1C(=O)NCCOCCNCC(=O)N1CCN(C(=O)c2cc(Cc3n[nH]c(=O)c4ccccc34)ccc2F)CC1 [Compound I-803] | < 10 | 100 to 1000 | 10 to 100 | 10 to 100 |  |  | 100 to 1000
12 | O=C(CN1CCN(CC2CCN(C(=O)c3c(F)cc(-c4ccncn4)cc3F)CC2)CC1)N1CCN(C(=O)c2cc(Cc3n[nH]c(=O)c4ccccc34)ccc2F)CC1 [Compound I-768] | < 10 | 10 to 100 | 100 to 1000 | 10 to 100 |  |  | 100 to 1000
13 | O=C(CN1CCN(CC2CCN(C(=O)c3c(F)cc(-c4ccccc4)cc3F)CC2)CC1)N1CCN(C(=O)c2cc(Cc3n[nH]c(=O)c4ccccc34)ccc2F)CC1 [Compound I-635] | < 10 | 10 to 100 | < 10 | < 10 |  |  | 10 to 100
14 | CCc1cccc(-c2cnc(C(=O)NC34CCC(CN5CCN(CC(=O)N6CCN(C(=O)c7cc(Cc8n[nH]c(=O)c9ccccc89)ccc7F)CC6)CC5)(CC3)OC4)c(NC(C)=O)c2)c1 [Compound I-469] | < 10 | 10 to 100 | 10 to 100 | 10 to 100 |  |  | 10 to 100
15 | CC(C)(F)C(=O)N1CCCC(c2cccc(C(=O)N[C@@H](C(=O)N3CCN(CC4CCN(CC(=O)N5CCN(C(=O)c6cc(Cc7n[nH]c(=O)c8ccccc78)ccc6F)CC5)CC4)CC3)C3CCCCC3)c2)C1 (stereo partly drawn) [Compound I-528] | < 10 | 100 to 1000 | 10 to 100 | 10 to 100 |  |  | 100 to 1000
16 | CCc1cccc(-c2cnc(C(=O)NC34CCC(CN5CCN(CC(=O)N6CCN(C(=O)c7cc(Cc8n[nH]c(=O)c9ccccc89)ccc7F)CC6)CC5)(CC3)OC4)c(N)c2)c1 [Compound I-470] | < 10 | 10 to 100 | 10 to 100 | 100 to 1000 |  |  | 10 to 100
17 | CC(C)(C)OC(=O)N[C@@H](C(=O)N1CCC(C)(OC2CCN(CC(=O)N3CCN(C(=O)c4cc(Cc5n[nH]c(=O)c6ccccc56)ccc4F)CC3)CC2)CC1)C1CCCCC1 [Compound I-871] | < 10 | 10 to 100 | 100 to 1000 | 10 to 100 |  |  | 100 to 1000
